Experimental data from patent US11724998B2, “PXR agonists and uses thereof for gut barrier dysfunction treatment and prevention” (Albert Einstein College of Medicine, priority 2017, dated 2023).

Molecular target: T1, PXR (Homo sapiens, UniProt O75469)
T1 sequence (O75469 1-434): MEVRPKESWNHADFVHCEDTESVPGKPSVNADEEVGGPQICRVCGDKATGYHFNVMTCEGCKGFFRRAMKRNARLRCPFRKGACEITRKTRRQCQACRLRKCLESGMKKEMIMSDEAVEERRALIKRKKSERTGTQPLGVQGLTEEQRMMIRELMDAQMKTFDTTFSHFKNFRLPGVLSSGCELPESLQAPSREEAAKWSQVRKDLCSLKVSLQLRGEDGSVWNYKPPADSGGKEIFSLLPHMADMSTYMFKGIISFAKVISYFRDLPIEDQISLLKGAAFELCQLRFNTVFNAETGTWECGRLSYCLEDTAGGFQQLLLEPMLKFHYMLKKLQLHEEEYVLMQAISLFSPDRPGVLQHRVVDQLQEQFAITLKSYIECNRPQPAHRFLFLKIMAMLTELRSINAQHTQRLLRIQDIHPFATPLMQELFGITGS
Assay: PXR activation (transactivation) luciferase assay in LS180 cells
Format: cell-based
Parameters: co-transfecting full-length expressing human PXR plasmid (91) and p3A4 luciferase reporter (92) in LS180 or Caco-2 cells; expressed in transfected cells; host or cells: LS180
Experimental: FIG. 6A-6E. Activation and inhibition studies with different FKK compounds. (A) PXR activation, LS180 cells (upper), and PXR inhibition, LS180 cells, co-incubation with RIF (lower). (B) AhR activation, AZ-AHR cells (upper), and AhR inhibition, AZ-AHR cells, co-incubation with TCDD (lower). (C) GR activation, AZ-GR cells (upper), and VDR activation, IZ-VDRE cells (lower). (D) TR activation, PZ-GR cells (upper), and AR activation, AIZ-AR cells (lower). (E) Displacement of radiolabeled 9-cis-retinoic acid (RA) by FKK compounds.
Two molecules that were readily available (Ryan Scientific: FKK999 & BAS451) were purchased and tested in vitro for PXR activation using a HepG2 reporter assay. […] […]. […] In general, reporter cell lines are efficient ways to screen for PXR ligands (72). In the LS180 intestinal cell line, the PXR activation assay involves a transient transfection system using a specific PXR plasmid and reporter plasmid (CVmax % 11.2+2; CVmid % 10.8+0.1.4; Signal Window 6.2+1.1; Z′ factor 0.51+0.005).
All the synthesized compounds and intermediates were tested for their potential to activate PXR and/or AhR via luciferase assays. The PXR activation assays were performed by co-transfecting full-length expressing human PXR plasmid (91) and p3A4 luciferase reporter (92) in LS180 or Caco-2 cells. AhR activation conducted using stably co-transfected HepG2 reporter cells as previously described (93). […] With the exception of FKK6, there was no significant inhibition of TCDD-induced AhR activation. […] Independent verification of AhR activity of randomly selected compounds—FKK 5, 6 and 9—was performed in a separate laboratory (GHP). Nuclear receptor selectivity was assessed for FKK compounds for GR, ADR, TR and AR using cell-based luciferase assays previously described (93-102). There was no observed biologically significant (>2-fold) induction of nuclear receptor activity (FIG. 6C). RXR ligand displacement is only significant for FKK1 and FKK8 (FIG. 6D).

EC50: 1.68 µM
Emax (read-out: Emax/Emax[rifampicin, positive control]): 128%
SMILES: O=C(c1ccncc1)c1cc2ccccc2n1S(=O)(=O)c1ccccc1 [FKK5]
